Data from patent publication US20240398771A1, “TREATMENT OF SCLERODERMA AND RAYNAUD'S SYNDROME” (Aisa Pharma, Inc., priority 2023, published 2024).

Experiments:
[1] = test system: participants with SSc-RP; experiment: SHAQ Visual Analog Scale - Breathing Problems; type: in vivo, human; design: Visual Analog Scale-Breathing Problems, Baseline, Mean / Visual Analog Scale-Breathing Problems, Baseline, Median / Visual Analog Scale-Breathing Problems, In Clinic Visit (Day 12), Mean / Visual Analog Scale-Breathing Problems, In Clinic Visit (Day 12), Median / Visual Analog Scale-Breathing Problems, Change from Baseline, Mean / Visual Analog Scale-Breathing Problems, Change from Baseline, Median: scale not given here; conditions: Tadalafil 5 mg; Modified ITT, Part A
Experimental: Results: Patients in the study were administered the Scleroderma Health Assessment Questionnaire (SHAQ) at the time of study entry and during clinic visits following the treatment period. The study is a two-part, parallel arm design, prospective, double-blind, randomized study conducted in Australia (Flinders Medical Center). 27 patients were randomized into the first phase of the study, following which a DSMB meeting was held, which reviewed data on the primary study endpoint and key Raynaud's secondary endpoints. Data on the SHAQ was not available for the DSMB to review. The mITT population, in which any data was available post treatment was 24 patients was the analysis population for this first part of the study. The second part (i.e., part B) of the study will randomize 36 patients in a double blind, randomized, prospective, placebo controlled, crossover study. In the first part (i.e., Part A) of the study for which data is presented, patients were randomized into 6 groups, cilnidipine at two doses (10 and 20 mg) alone and in combination with tadalafil 5 mg, tadalafil 5 mg alone, and placebo. […] The DSMB recommended that the study proceed into its double blind prospective cross overpowered second phase and compare cilnidipine 20 mg alone to placebo. […] Cilnidipine treatment may reduce patient-reported SSc disease disability compared to placebo • b. Cilnidipine treatment may reduce patient-reported SSc disease alternative disability compared to placebo • c. Cilnidipine treatment may reduce patient-reported SSc disease pain* compared to placebo • d. Cilnidipine treatment may reduce patient-reported SSc disease severity compared to placebo • e. Cilnidipine treatment may reduce patient-reported SSc disease skin ulcer severity rating compared to placebo • f Cilnidipine treatment may reduce patient-reported SSc disease breathing difficulty compared to placebo • g. […] SSc disease pain comprises not only pain from Raynaud's but joint pain, headache, odynophagia, back pain, pain from skin ulceration, and neuropathic pain). Table E includes results of the Scleroderma Health Assessment Questionnaire.

[2] = test system: participants with SSc-RP; experiment: Average duration of weekly symptomatic RP attacks (minutes); type: in vivo, human; conditions: ITT Part A
Excerpt: The relevant metrics measured by this tool daily are: • Study medication • SSc-RP symptoms (Reporting an attack including duration of attack) • Severity of the attack considering all symptoms of the attack e.g. tingling, numbness, pain, color changes (VAS 0-10 cm scale) • Participant's location at the time of the attack (inside home/outside home) • Selecting symptoms experienced during the attack (tingling, numbness, pain, color changes, other) • Pain rating during the attack (11-point Likert scale) • The RCS based on how much difficulty participants had with Raynaud's today, how many attacks the participant had, and how long they lasted. Participants will also be asked to consider how much pain, numbness, or other symptoms the Raynaud's caused in fingers (including painful sores), and how much the Raynaud's alone affected the use of hands today (VAS 0-10 cm scale).
The absolute change in average duration of weekly RP attacks from baseline to the end of each dosing period was and will be a secondary outcome variable. The sponsor-developed participant-informed diary was and will be used to record data. Average duration of weekly RP attacks is defined as the total duration of RP attacks divided by total number of RP attacks within the last 7 days of each dosing period. Total duration of RP attacks during the last 7 days of screening period divided by the total number of RP attacks will be used as baseline for the analysis of all periods. The variable will be calculated similar to frequency data as before.

[3] = Excluding Outliers, Baseline RCS subgroup 2 (second half of Table B-4, stratum not given), last 7 days of dosing period
[4] = Excluding Outliers, Baseline RCS subgroup 2 (second half of Table B-4, stratum not given), last 7 days of screening period
[5] = Baseline RCS subgroup 2 (Table B-3, stratum not given), last 7 days of dosing period
[6] = Baseline RCS subgroup 2 (Table B-3, stratum not given), last 7 days of screening period

## CN1CC(=O)N2[C@H](c3ccc4c(c3)OCO4)c3[nH]c4ccccc4c3C[C@@H]2C1=O [Tadalafil]
[1]
  Visual Analog Scale-Breathing Problems, Baseline, Mean: 1.025
  Visual Analog Scale-Breathing Problems, Baseline, Median: 0.450
  Visual Analog Scale-Breathing Problems, Change from Baseline, Mean: 0.925
  Visual Analog Scale-Breathing Problems, Change from Baseline, Median: 0.300
  Visual Analog Scale-Breathing Problems, In Clinic Visit (Day 12), Mean: 1.950
  Visual Analog Scale-Breathing Problems, In Clinic Visit (Day 12), Median: 0.450
  Visual Analog Scale-Breathing Problems, Percent Change from Baseline, Mean: 213.54%
  Visual Analog Scale-Breathing Problems, Percent Change from Baseline, Median: 115.63%
[2]; [3]
  Average Duration of weekly symptomatic RP attacks, Max: 6.0, 6.0 minutes
  Average Duration of weekly symptomatic RP attacks, Mean: 6.00 min
  Average Duration of weekly symptomatic RP attacks, Median: 6.00 min
  Average Duration of weekly symptomatic RP attacks, Min: 6.0, 6.0 minutes
  Average Duration of weekly symptomatic RP attacks, Q1: 6.00, 6.00 minutes
  Average Duration of weekly symptomatic RP attacks, Q3: 6.00, 6.00 minutes
  Average duration of weekly symptomatic RP attacks, Change from Baseline, Max: −4.6, −4.6 minutes
  Average duration of weekly symptomatic RP attacks, Change from Baseline, Mean: -4.58 min
  Average duration of weekly symptomatic RP attacks, Change from Baseline, Min: −4.6, −4.6 minutes
  Average duration of weekly symptomatic RP attacks, Change from Baseline, Q3: −4.58, −4.58 minutes
  Average duration of weekly symptomatic RP attacks, Percent Change from Baseline, Max: −43.3, −43.3%
  Average duration of weekly symptomatic RP attacks, Percent Change from Baseline, Mean: −43.31%
  Average duration of weekly symptomatic RP attacks, Percent Change from Baseline, Min: −43.3, −43.3%
  Average duration of weekly symptomatic RP attacks, Percent Change from Baseline, Q3: −43.31, −43.31%
[2]; [4]
  Average duration of weekly symptomatic RP attacks, Baseline, Max: 10.6, 10.6 minutes
  Average duration of weekly symptomatic RP attacks, Baseline, Mean: 10.58 min
  Average duration of weekly symptomatic RP attacks, Baseline, Median: 10.58 min
  Average duration of weekly symptomatic RP attacks, Baseline, Min: 10.6, 10.6 minutes
  Average duration of weekly symptomatic RP attacks, Baseline, Q1: 10.58, 10.58 minutes
  Average duration of weekly symptomatic RP attacks, Baseline, Q3: 10.58, 10.58 minutes
[2]; [5]
  Average Duration of weekly symptomatic RP attacks: 6.0 min
  Average Duration of weekly symptomatic RP attacks, Max: 818.6 min
  Average Duration of weekly symptomatic RP attacks, Q1: 6.00 min
  Average Duration of weekly symptomatic RP attacks, Q3: 818.57 min
  Average duration of weekly symptomatic RP attacks, Change from Baseline: -4.6 min
  Average duration of weekly symptomatic RP attacks, Change from Baseline, Max: 286.1 min
  Average duration of weekly symptomatic RP attacks, Change from Baseline, Q1: -4.58 min
  Average duration of weekly symptomatic RP attacks, Change from Baseline, Q3: 286.07 min
  Average duration of weekly symptomatic RP attacks, Percent Change from Baseline, Max: 53.7%
  Average duration of weekly symptomatic RP attacks, Percent Change from Baseline, Min: −43.3%
  Average duration of weekly symptomatic RP attacks, Percent Change from Baseline, Q1: −43.31%
  Average duration of weekly symptomatic RP attacks, Percent Change from Baseline, Q3: 53.72%
[2]; [6]
  Average duration of weekly symptomatic RP attacks, Baseline: 10.6 min
  Average duration of weekly symptomatic RP attacks, Baseline, Max: 532.5 min
  Average duration of weekly symptomatic RP attacks, Baseline, Mean: 271.54 min
  Average duration of weekly symptomatic RP attacks, Baseline, Median: 271.54 min
  Average duration of weekly symptomatic RP attacks, Baseline, Q1: 10.58 min
  Average duration of weekly symptomatic RP attacks, Baseline, Q3: 532.50 min
